{"source": "paper PMC11432330", "about": "“Novel Drug-like HsrA Inhibitors Exhibit Potent Narrow-Spectrum Antimicrobial Activities against Helicobacter pylori” (International Journal of Molecular Sciences, 2024)", "test_system": "H. pylori 26695", "assay": "In vivo inhibition of HsrA: RNA-Seq transcriptomic analysis of exposed cells", "format": "cell-based, Helicobacter pylori", "settings": "for log2 Fold Change: exposed to lethal concentrations vs control", "description": "Bacterial growth from three blood agar plates of H. pylori ATCC 700392 (aka 26695) incubated for 48 h at 37 °C under microaerobic conditions was aseptically resuspended in BHI + FBS and adjusted to 10^7 CFU/mL. BHI broth cultures were incubated microaerobically at 37 °C for 24 h. […] At this time, bacterial growth was stopped by adding 1.5 mL ice-cold RNA stop solution (95% absolute ethanol, 5% acid-buffered phenol) and subsequently incubated on ice. Control samples were exposed to the same amount of DMSO instead of the inhibitor. Helicobacter cells from all samples were harvested by centrifugation (4000 rpm at 4 °C for 10 min), then the pellets were quickly frozen by immersion in liquid nitrogen and stored at −80 °C.\nRNA-Seq analysis was performed by GENEWIZ (Azenta Life Sciences, Leipzig, Germany). Frozen cell pellets from two biological replicates of each treatment condition were properly submitted to GENEWIZ in dry ice. RNA-Seq libraries were prepared according to standard protocols via rRNA depletion, RNA fragmentation and random priming, reverse transcription, 5’-phosphorylation and dA-tailing of cDNAs, adaptor ligation, and PCR enrichment. Once the quality of each library was confirmed, they were sequenced on an Illumina NovaSeq 6000 (Illumina, San Diego, CA, USA) with 150-bp paired-ends. Raw sequence reads were filtered to remove possible adapter sequences and nucleotides with poor quality using Trimmomatic v.0.36 [105]. The trimmed reads were subsequently mapped to the H. pylori strain 26695 reference genome NC_000915.1 available on NCBI, by using the Bowtie2 aligner v.2.2.6 [106]. Unique gene hit counts were calculated by using featureCounts from the Subread package v.1.5.2. Only unique reads that fell within the gene regions were counted. Using DESeq2 [108], a comparison of the gene expression between the control and treated groups of samples was performed. The Wald test was used to generate p-values and log2 fold changes. Genes with an adjusted p-value < 0.05 and absolute log2 fold change >1 were considered as differentially expressed genes (DEGs) for each comparison. The RNA-Seq data generated in this study have been deposited in ArrayExpress with the accession number E-MTAB-14255.", "key": {"[1]": {"settings": "RNA-Seq, 4 × MIC, vs control samples"}}, "data": [{"compound": "NC(=NOC(=O)Nc1ccc(Cl)cc1)c1csc([N+](=O)[O-])c1", "note": "[Ligand V, N′-{[(4-chloroanilino)carbonyl]}oxy-5-nitrothiophene-3-carboximidamide]", "values": [{"measurement": "Exposure until log10 CFU/mL diminished in one unit", "setting": "4 × MIC, ~3 × 10^7 CFU/mL H. pylori 26695", "value": "~ 2 h"}, {"measurement": "Depletion in gene expression of 50S ribosomal proteins L21, L35, L27 and 30S ribosomal protein S10", "setting": "RNA-Seq, 4 × MIC", "value": "> 5.8", "unit": "fold"}, {"measurement": "Downregulation of ferrous iron transporter FeoB", "setting": "RNA-Seq, 4 × MIC", "value": "~ 2.5 fold"}, {"measurement": "ORFs of the H. pylori genome with influenced expression", "setting": "RNA-Seq, 4 × MIC", "value": 23, "unit": "%"}, {"measurement": "Upregulation of ferritin (pfr, hp0653)", "setting": "RNA-Seq, 4 × MIC", "value": 4.7, "unit": "fold"}, {"measurement": "Upregulation of ferritin-like iron-binding protein NapA", "setting": "RNA-Seq, 4 × MIC", "value": 2.3, "unit": "fold"}, {"measurement": "Genes downregulated", "setting": "[1]", "value": 155}, {"measurement": "Genes upregulated", "setting": "[1]", "value": 212}, {"measurement": "ORF with significantly changed transcript levels", "setting": "RNA-Seq, 4 × MIC, absolute log2 fold change > 1, p-value < 0.05", "value": 367}, {"measurement": "log2 Fold Change HP0013", "setting": "gene HP0013, lethal concentrations of V vs control", "value": 0.182}, {"measurement": "log2 Fold Change HP0018", "setting": "gene HP0018, lethal concentrations of V vs control", "value": 0.356}, {"measurement": "log2 Fold Change", "setting": "gene HP0022", "value": -0.512}, {"measurement": "log2 Fold Change HP0028", "setting": "gene HP0028, lethal concentrations of V vs control", "value": 0.408}, {"measurement": "log2 Fold Change", "setting": "gene HP0029", "value": -0.496}, {"measurement": "log2 Fold Change HP0030", "setting": "gene HP0030, lethal concentrations of V vs control", "value": 0.184}, {"measurement": "log2 Fold Change HP0033", "setting": "gene HP0033, lethal concentrations of V vs control", "value": 0.361}, {"measurement": "log2 Fold Change", "setting": "gene HP0043", "value": -0.566}, {"measurement": "log2 Fold Change", "setting": "gene HP0054", "value": -0.519}, {"measurement": "log2 Fold Change HP0063", "setting": "gene HP0063, lethal concentrations of V vs control", "value": 0.326}, {"measurement": "log2 Fold Change HP0066", "setting": "gene HP0066, lethal concentrations of V vs control", "value": 0.182}, {"measurement": "log2 Fold Change HP0081", "setting": "gene HP0081, lethal concentrations of V vs control", "value": 0.173}, {"measurement": "log2 Fold Change HP0082", "setting": "gene HP0082, lethal concentrations of V vs control", "value": 0.224}, {"measurement": "log2 Fold Change HP0089", "setting": "gene HP0089, lethal concentrations of V vs control", "value": 0.244}, {"measurement": "log2 Fold Change", "setting": "gene HP0099", "value": -0.573}, {"measurement": "log2 Fold Change HP0102", "setting": "gene HP0102, lethal concentrations of V vs control", "value": 0.190}, {"measurement": "log2 Fold Change HP0104", "setting": "gene HP0104, lethal concentrations of V vs control", "value": 0.451}, {"measurement": "log2 Fold Change HP0106", "setting": "gene HP0106, lethal concentrations of V vs control", "value": 0.286}, {"measurement": "log2 Fold Change HP0121", "setting": "gene HP0121, lethal concentrations of V vs control", "value": 0.408}, {"measurement": "log2 Fold Change HP0138", "setting": "gene HP0138, lethal concentrations of V vs control", "value": 0.430}, {"measurement": "log2 Fold Change", "setting": "gene HP0141", "value": -0.503}, {"measurement": "log2 Fold Change", "setting": "gene HP0142", "value": -0.490}, {"measurement": "log2 Fold Change HP0144", "setting": "gene HP0144, lethal concentrations of V vs control", "value": 0.204}, {"measurement": "log2 Fold Change HP0145", "setting": "gene HP0145, lethal concentrations of V vs control", "value": 0.164}, {"measurement": "log2 Fold Change", "setting": "gene HP0149", "value": -0.471}, {"measurement": "log2 Fold Change", "setting": "gene HP0151", "value": 1.340}, {"measurement": "log2 Fold Change HP0152", "setting": "gene HP0152, lethal concentrations of V vs control", "value": 0.161}, {"measurement": "log2 Fold Change HP0155", "setting": "gene HP0155, lethal concentrations of V vs control", "value": 0.192}, {"measurement": "log2 Fold Change", "setting": "gene HP0159", "value": -0.532}, {"measurement": "log2 Fold Change HP0166", "setting": "gene HP0166, lethal concentrations of V vs control", "value": 0.208}, {"measurement": "log2 Fold Change HP0170", "setting": "gene HP0170, lethal concentrations of V vs control", "value": 0.476}, {"measurement": "log2 Fold Change HP0186", "setting": "gene HP0186, lethal concentrations of V vs control", "value": 0.474}, {"measurement": "log2 Fold Change HP0195", "setting": "gene HP0195, lethal concentrations of V vs control", "value": 0.229}, {"measurement": "log2 Fold Change", "setting": "gene HP0202", "value": -0.569}, {"measurement": "log2 Fold Change HP0209", "setting": "gene HP0209, lethal concentrations of V vs control", "value": 0.364}, {"measurement": "log2 Fold Change HP0214", "setting": "gene HP0214, lethal concentrations of V vs control", "value": 0.273}, {"measurement": "log2 Fold Change HP0215", "setting": "gene HP0215, lethal concentrations of V vs control", "value": 0.474}, {"measurement": "log2 Fold Change HP0221", "setting": "gene HP0221, lethal concentrations of V vs control", "value": 0.231}, {"measurement": "log2 Fold Change", "setting": "gene HP0222", "value": -0.475}, {"measurement": "log2 Fold Change HP0224", "setting": "gene HP0224, lethal concentrations of V vs control", "value": 0.431}, {"measurement": "log2 Fold Change HP0230", "setting": "gene HP0230, lethal concentrations of V vs control", "value": 0.223}, {"measurement": "log2 Fold Change HP0234", "setting": "gene HP0234, lethal concentrations of V vs control", "value": 0.200}, {"measurement": "log2 Fold Change", "setting": "gene HP0257", "value": -0.600}, {"measurement": "log2 Fold Change HP0263", "setting": "gene HP0263, lethal concentrations of V vs control", "value": 0.370}, {"measurement": "log2 Fold Change HP0267", "setting": "gene HP0267, lethal concentrations of V vs control", "value": 0.453}, {"measurement": "log2 Fold Change", "setting": "gene HP0268", "value": -0.504}, {"measurement": "log2 Fold Change", "setting": "gene HP0285", "value": -0.482}, {"measurement": "log2 Fold Change HP0290", "setting": "gene HP0290, lethal concentrations of V vs control", "value": 0.227}, {"measurement": "log2 Fold Change", "setting": "gene HP0293", "value": -0.482}, {"measurement": "log2 Fold Change HP0315", "setting": "gene HP0315, lethal concentrations of V vs control", "value": 0.371}, {"measurement": "log2 Fold Change HP0316", "setting": "gene HP0316, lethal concentrations of V vs control", "value": 0.320}, {"measurement": "log2 Fold Change HP0322", "setting": "gene HP0322, lethal concentrations of V vs control", "value": 0.305}, {"measurement": "log2 Fold Change HP0329", "setting": "gene HP0329, lethal concentrations of V vs control", "value": 0.261}, {"measurement": "log2 Fold Change HP0338", "setting": "gene HP0338, lethal concentrations of V vs control", "value": 0.386}, {"measurement": "log2 Fold Change HP0339", "setting": "gene HP0339, lethal concentrations of V vs control", "value": 0.459}, {"measurement": "log2 Fold Change HP0340", "setting": "gene HP0340, lethal concentrations of V vs control", "value": 0.379}, {"measurement": "log2 Fold Change HP0348", "setting": "gene HP0348, lethal concentrations of V vs control", "value": 0.281}, {"measurement": "log2 Fold Change HP0360", "setting": "gene HP0360, lethal concentrations of V vs control", "value": 0.234}, {"measurement": "log2 Fold Change HP0385", "setting": "gene HP0385, lethal concentrations of V vs control", "value": 0.352}, {"measurement": "log2 Fold Change HP0391", "setting": "gene HP0391, lethal concentrations of V vs control", "value": 0.386}, {"measurement": "log2 Fold Change HP0393", "setting": "gene HP0393, lethal concentrations of V vs control", "value": 0.172}, {"measurement": "log2 Fold Change", "setting": "gene HP0396", "value": -0.496}, {"measurement": "log2 Fold Change HP0405", "setting": "gene HP0405, lethal concentrations of V vs control", "value": 0.308}, {"measurement": "log2 Fold Change HP0408", "setting": "gene HP0408, lethal concentrations of V vs control", "value": 0.201}, {"measurement": "log2 Fold Change HP0416", "setting": "gene HP0416, lethal concentrations of V vs control", "value": 0.330}, {"measurement": "log2 Fold Change", "setting": "gene HP0418", "value": -0.527}, {"measurement": "log2 Fold Change HP0420", "setting": "gene HP0420, lethal concentrations of V vs control", "value": 0.289}, {"measurement": "log2 Fold Change HP0437", "setting": "gene HP0437, lethal concentrations of V vs control", "value": 0.205}, {"measurement": "log2 Fold Change HP0440", "setting": "gene HP0440, lethal concentrations of V vs control", "value": 0.156}, {"measurement": "log2 Fold Change HP0441", "setting": "gene HP0441, lethal concentrations of V vs control", "value": 0.254}, {"measurement": "log2 Fold Change HP0447", "setting": "gene HP0447, lethal concentrations of V vs control", "value": 0.436}]}]}
